In patent publication US8975280B2, “Deoxynojirimycin and D-arabinitol analogs and methods of using” (The Chancellor, Masters and Scholars of The University of …, priority 2006, dated 2015):
Like-named read-outs stand apart in the source and are kept apart here.

Legend:
[1] = biological target: T1, α-glucosidase II (Rattus norvegicus, UniProt A0A8I6GFL3); test: In vitro inhibition of purified α-glucosidase II, (a) and (b) activities, 2-AA-labeled FOS substrates, HPLC; assay type: biochemical
T1 construct: Purified α-glucosidase I and II were purified from rat liver by known methods; from tissue; host or cells: rat liver
Protocol: (§1) All chromatography was performed at 30° C. The first solvent, solvent A, was acetonitrile and the second solvent, solvent B, was Milli-Q water. […] Samples (<50 μl) were injected in Milli-Q water/acetonitrile (3/7, v/v). All chromatography was controlled, including data collection and processing, using Waters Empower software. Glucose units were determined, following comparison with a 2-AA-labeled glucose oligomer ladder (derived from a partial hydrolysate of dextran) external standard using Peak Time software (developed in-house).
Purified α-glucosidase I and II were purified from rat liver by known methods. […] 2-AA-labeled FOS were isolated and purified as substrates for either α-glucosidase I or II. […] […] […] […] The reactions were stopped by the addition of 30 μl acetonitrile.

[2] = biological target: T2, α-glucosidase I (Rattus norvegicus, UniProt O88941); test: In vitro inhibition of purified α-glucosidase I, 2-AA-labeled FOS substrates, HPLC; assay type: biochemical
T2 construct: Purified α-glucosidase I and II were purified from rat liver by known methods; from tissue; host or cells: rat liver
T2 sequence (O88941 1-834): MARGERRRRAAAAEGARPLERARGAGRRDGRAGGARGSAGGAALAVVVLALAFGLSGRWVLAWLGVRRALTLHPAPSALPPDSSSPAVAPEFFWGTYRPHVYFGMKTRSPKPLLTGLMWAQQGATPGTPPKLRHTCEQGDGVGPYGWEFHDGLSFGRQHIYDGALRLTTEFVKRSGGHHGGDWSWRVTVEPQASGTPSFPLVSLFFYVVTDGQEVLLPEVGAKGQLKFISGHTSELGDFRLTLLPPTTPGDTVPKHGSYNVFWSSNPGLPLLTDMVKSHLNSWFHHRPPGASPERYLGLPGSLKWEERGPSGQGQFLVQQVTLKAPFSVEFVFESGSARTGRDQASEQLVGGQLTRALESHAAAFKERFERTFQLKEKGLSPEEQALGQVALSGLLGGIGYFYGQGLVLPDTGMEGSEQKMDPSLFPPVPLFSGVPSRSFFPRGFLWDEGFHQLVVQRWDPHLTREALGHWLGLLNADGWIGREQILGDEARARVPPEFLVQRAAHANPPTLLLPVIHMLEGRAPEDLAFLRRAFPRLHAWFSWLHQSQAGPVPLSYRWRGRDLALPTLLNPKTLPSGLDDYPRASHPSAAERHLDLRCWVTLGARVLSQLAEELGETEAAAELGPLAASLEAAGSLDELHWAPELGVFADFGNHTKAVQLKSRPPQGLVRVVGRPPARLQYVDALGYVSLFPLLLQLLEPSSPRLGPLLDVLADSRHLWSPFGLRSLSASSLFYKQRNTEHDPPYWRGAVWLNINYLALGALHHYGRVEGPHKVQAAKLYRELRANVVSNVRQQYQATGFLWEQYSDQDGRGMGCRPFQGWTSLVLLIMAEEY
Protocol: as §1
Purified α-glucosidase I and II were purified from rat liver by known methods. […] 2-AA-labeled FOS were isolated and purified as substrates for either α-glucosidase I or II. Fluorescently-labeled substrates Glc1Man5GlcNAc1 (G1M5N), Glc2Man5GlcNAc1 (G2M5N), Glc3Man5GlcNAc1 (G3M5N) and Glc3Man9GlcNAc, (G3M9N2) were added to separate 1.5 ml centrifuge tubes with varying concentrations of imino sugar and dried under vacuum. […] Similarly, α-glucosidase II was incubated for 2 hours with G2M5N and 20 minutes with G1M5N. […] The reactions were stopped by the addition of 30 μl acetonitrile.

[3] = physiologically relevant substrates

T1 sequence (A0A8I6ADW9 1-525 partner): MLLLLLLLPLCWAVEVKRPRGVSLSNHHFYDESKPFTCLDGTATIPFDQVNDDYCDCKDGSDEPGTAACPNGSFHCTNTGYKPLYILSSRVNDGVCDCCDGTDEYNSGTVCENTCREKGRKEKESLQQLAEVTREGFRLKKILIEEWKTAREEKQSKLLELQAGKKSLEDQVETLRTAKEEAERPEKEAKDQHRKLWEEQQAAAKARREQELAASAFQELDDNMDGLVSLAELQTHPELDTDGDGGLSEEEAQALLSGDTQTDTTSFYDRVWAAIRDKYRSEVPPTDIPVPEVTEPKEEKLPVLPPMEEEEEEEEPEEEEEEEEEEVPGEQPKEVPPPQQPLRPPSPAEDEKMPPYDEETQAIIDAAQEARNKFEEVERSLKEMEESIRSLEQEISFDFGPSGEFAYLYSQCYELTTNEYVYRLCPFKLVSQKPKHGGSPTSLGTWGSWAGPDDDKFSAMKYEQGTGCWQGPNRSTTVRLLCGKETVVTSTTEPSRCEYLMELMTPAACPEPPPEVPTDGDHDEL

- IC50 ([1]; heptamannose substrate Glc1Man7GlcNAc1, read-out: α-Glucosidase II (b) Glc1Man7GlcNAc1 IC50): 19200 ± 60 nM
- IC50 ([1]; heptamannose substrate Glc2Man7GlcNAc1, read-out: α-Glucosidase II (a) Glc2Man7GlcNAc1 IC50): 11700 ± 700 nM
- IC50 ([1]; pentamannose substrate Glc1Man5GlcNAc1, read-out: α-Glucosidase II (b) Glc1Man5GlcNAc1 IC50): 833 ± 180 nM
- IC50 ([1]; pentamannose substrate Glc2Man5GlcNAc1, read-out: α-Glucosidase II (a) Glc2Man5GlcNAc1 IC50): 300 ± 100 nM
- more potent in inhibiting glucosidase I than glucosidase II (a) ([2]; heptamannose substrates): over 300 times
- more potent in inhibiting glucosidase I than glucosidase II (b) ([2]; heptamannose substrates): more than 500 times
- inhibition of α-glucosidase I improved in comparison to NB-DNJ ([2]; pentamannose substrate): 40 fold
- inhibition better for α-glucosidase I than α-glucosidase II (a) ([2]; pentamannose substrates): 20 times
- inhibition better for α-glucosidase I than α-glucosidase II (b) ([2]; pentamannose substrates): 50 times
- better at inhibiting glucosidase I than glucosidase II (a) and (b) activity [2, 3]: 300-500 times
- better than NB-DNJ in inhibiting all triglucosylated structures [2, 3]: 25-50 times
- IC50 ([2]; α-Glucosidase I Glc3Man5GlcNAc1 IC50, pentamannose substrate Glc3Man5GlcNAc1): 17 ± 1 nM
- IC50 ([2]; α-Glucosidase I Glc3Man7GlcNAc1 IC50, heptamannose substrate Glc3Man7GlcNAc1): 37 ± 1 nM
- IC50 ([2]; α-Glucosidase I Glc3Man9GlcNAc1 IC50, nonamannose substrate Glc3Man9GlcNAc1): 22 ± 2 nM
SMILES: [N-]=[N+]=Nc1ccc(NCCCCCCN2C[C@H](O)[C@@H](O)[C@H](O)[C@H]2CO)c([N+](=O)[O-])c1 [NAP-DNJ, N—(N′-{4′azido-2′-nitrophenyl)-6-aminohexyl)-deoxynojirimycin]
